According to patent US20110262442A1, “COMPOSITIONS FOR TREATING CNS DISORDERS” (Adenios, Inc., priority 2009, published 2011):

Tested on: blood brain barrier
Assay: Fluorimetric analysis of labeled dextrans in brain after i.v. drug administration
Assay type: in vivo, mice
Procedure: C57BL/6 mice from Jackson Laboratories were used as wild types. All mice used were aged 7-9 weeks and weighed between 20-25 g. All rats were aged 8 weeks and weighed 200-220 g. Mice and rats were bred and housed under specific pathogen-free conditions.
The adenosine receptor agonists NECA, CCPA and CGS 21860 were purchased from Tocris. Each was dissolved in DMSO then diluted in PBS to the desired concentration; in most cases final DMSO concentrations were <0.5% (vol/vol). For vehicle controls, DMSO was diluted in PBS to the same concentration. Dehydrated dextrans labeled with either FITC or Texas Red were purchased from Invitrogen and re-suspended in PBS to 10 mg ml^−1. All experiments involving dextran injection used 0.5 mg dextran in PBS. In experiments where drug and dextran were injected concomitantly, 0.5 mg of dextran was mixed with the drug to the desired concentration in a final volume of 200 μl. All injections were retro-orbital i.v. with a 27-gauge needle. In the SCH 58261 experiment, groups were administered vehicle or SCH 58261 for 4 d. Vehicle/drug and dextrans were injected on day 5 and tissues were collected 3 h after vehicle/drug administration. In Lexiscan experiments, Lexiscan was administered i.v. with 3 injections, 5 min apart and tissues were collected at 15 min unless otherwise indicated.
In dose-response experiments and experiments with the A1 AR and A2A AR knock-out mice, drugs and dextrans were injected concomitantly. After 3 h, the mice were anesthetized with ketamine/xylazine and subjected to a nose cone containing isoflurane. They were perfused with 25-50 ml ice-cold PBS through the left ventricle of the heart then decapitated. Their brains were removed, weighed and frozen for later analysis.
Ice-cold 50 mM Tris-Cl (pH 7.6) was added to frozen brains (100 μl per 100 mg brain) and were to thawed on ice. They were homogenized manually with ˜45 strokes of a dounce homogenizer in plastic 1.5 ml microfuge tubes then spun at 16.1 g in a microfuge for 30 min at room temperature (rt). The supernatants were transferred to new tubes and an equal volume absolute methanol was added. The samples were spun again at 16.1 g for 30 min at rt. Supernatant (200 μl) was transferred to a Corning costar 96 well black polystyrene assay plate (clear bottom). Additionally, a series of standards containing 0.001-10 μg ml^−1 dextran in 50% Tris-Cl/50% absolute methanol (vol/vol) was added to each plate. Absolute concentrations of dextrans were derived from these standard curves. Fluorimetric analysis was performed on a BioTek Synergy 4. FITC-dextran was detected at 488/519 (excitation/emission) and Texas Red-dextran was detected at 592/618.

[1] = WT mice, 3 h after i.v. administration

CCNC(=O)[C@H]1O[C@@H](n2cnc3c(N)ncnc32)[C@H](O)[C@@H]1O [NECA, 5′-N-ethylcarboxamidoadenosine]
levels of i.v.-administered 10,000 Da dextrans in brain compared to wild type mice (A1−/− mice, 3 h after i.v. administration): significantly lower levels
levels of i.v.-administered 10,000 Da dextrans in brain compared to wild type mice (A2A−/− mice, 3 h after i.v. administration): significantly lower levels
time of maximum entry of labeled dextran into the CNS post-treatment (WT mice, 10,000 Da FITC-dextran co-administered with drug at T0): 4 to 6 h
CNS entry of 10,000 Da dextrans compared to vehicle [1]: dose-dependent increase
CNS entry of 70,000 Da dextrans compared to vehicle [1]: dose-dependent increase
time post-treatment by which dextran levels returned to baseline (WT mice, Texas Red-dextran injected after drug, 19.5 h collection time): ≤ 18 h
detectable levels of dextran in the brain at 8 h post-treatment (WT mice, Texas Red-dextran injected at indicated time after drug, 9.5 h collection time): decreased from the maximum
dose giving maximum entry of dextrans into the CNS (WT mice, i.v., 100 μl of 25 μM): 0.80 µg
